Measurements as given in patent US20250026718A1, “SOLID FORMS OF MESEMBRINE AND THERAPEUTIC USES THEREOF” (Sensorium Therapeutics, Inc., priority 2022, published 2025).
Converted amounts (≈) assume the structure as drawn. “Also recorded” adds a separate entry of the source. Like-named read-outs stand apart in the source and are kept apart here.

Assays:
hygroscopicity by DVS = format: physicochemical
Description: Hygroscopicity of Freeform Form A, HCl Form A, Besylate Form B, and Gentisate Form A was evaluated by DVS.

[1] = solid state stability: storage at 25° C./60% RH and 40° C./75% RH for 1 week, XRPD and HPLC purity; format: physicochemical; conditions: for Purity (area %): HPLC purity; for Form change: XRPD; for HPLC purity change after storage: 40° C./75% RH for 1 week
Description: For XRPD analysis, Empyrean X-ray powder diffractometer from Malvern Panalytical was used. Sample was spread on the middle of a zero-background Si holder.
XRPD and HPLC purity was performed for stability samples to assess the physical and chemical stability.

[2] = target: sodium-dependent serotonin transporter (SERT) (Homo sapiens, UniProt P31645); conditions: reported for the naturally occurring compound from Sceletium tortuosum; cited from earlier work
sodium-dependent serotonin transporter (SERT), sequence (P31645 whole entry, species assumed): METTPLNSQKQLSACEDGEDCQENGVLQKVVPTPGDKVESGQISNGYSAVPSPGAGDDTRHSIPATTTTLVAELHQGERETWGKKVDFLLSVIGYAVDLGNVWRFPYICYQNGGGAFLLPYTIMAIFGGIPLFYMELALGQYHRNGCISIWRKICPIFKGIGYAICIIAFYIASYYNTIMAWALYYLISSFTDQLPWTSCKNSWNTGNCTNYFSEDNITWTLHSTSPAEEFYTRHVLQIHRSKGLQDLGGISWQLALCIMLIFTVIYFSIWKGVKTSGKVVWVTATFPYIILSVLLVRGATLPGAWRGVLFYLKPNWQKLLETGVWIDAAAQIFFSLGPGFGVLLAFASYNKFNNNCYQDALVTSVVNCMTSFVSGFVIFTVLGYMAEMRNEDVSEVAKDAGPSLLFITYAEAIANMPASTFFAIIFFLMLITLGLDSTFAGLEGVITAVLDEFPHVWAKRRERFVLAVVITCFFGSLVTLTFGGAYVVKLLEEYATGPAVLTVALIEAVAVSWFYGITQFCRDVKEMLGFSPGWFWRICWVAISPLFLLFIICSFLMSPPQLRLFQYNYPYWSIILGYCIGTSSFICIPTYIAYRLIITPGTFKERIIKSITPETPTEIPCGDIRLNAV

[3] = kinetic solubility in H2O and bio-relevant media (SGF, FaSSIF, FeSSIF) at 37° C.; format: physicochemical; conditions: thermodynamic from solid; for solubility: 37 °C, read-out: observed solubility; for solubility kinetic / solubility at 1 h / solubility at 2 h / solubility at 4 h / solubility at 24 h: 37° C.; for solubility kinetic: at 1, 2, 4 and 24 hrs; for solubility at 1 h / solubility at 2 h / solubility at 4 h / solubility at 24 h: read-out: S: Solubility (mg/mL), calculated by freebase
Description: • 1. Add about 40 mg of samples and 4 mL of corresponding medium into a 5-mL glass vial. The loading concentration was ˜10 mg/mL (calculated by freebase). • 2. Roll at 37° C. (˜25 rpm). Sample at 1, 2, 4 and 24 hrs. • 3. At each time-point, sample 0.8 mL of solution or suspension into a centrifuge tube prior to centrifugation (12000 rpm, 37° C., 5 min) and filtration through 0.45 μm PTFE membrane. • 4. Test pH and concentration for the filtrate. Analyze residual solids by XRPD.

[4] = solubility of Freeform Form A in solvents; format: physicochemical
Source text: Freeform Form A was a gum material. The material had the solubility shown below:

COc1ccc([C@@]23CCC(=O)C[C@@H]2N(C)CC3)cc1OC.O=S(=O)(O)c1ccccc1 [Besylate Form B]
Water uptake at 25° C./80% RH (wt %) (hygroscopicity by DVS; DVS): 0.32 wt % | water uptake at 25° C./80% RH (hygroscopicity by DVS; DVS): 0.32% | Form change by XRPD after DVS test (hygroscopicity by DVS): No form change and No | form change by XRPD after storage ([1]; 25° C./60% RH/open/1 week): no form change | Purity (area %) ([1]; 25° C./60% RH/open/1 week): 97.16 area % | Form change ([1]; 25° C./60% RH/open/1 week): No | HPLC purity change after storage [1]: slight purity decrease | form change by XRPD after storage ([1]; 40° C./75% RH/open/1 week): no form change | Purity (area %) ([1]; 40° C./75% RH/open/1 week): 97.12 area % | Form change ([1]; 40° C./75% RH/open/1 week): No | Purity (area %) ([1]; Initial): 97.21 area %

COc1ccc([C@@]23CCC(=O)C[C@@H]2N(C)CC3)cc1OC [Compound 1, 3a-(3,4-dimethoxyphenyl)-octahydro-1-methyl-6H-indol-6-one]
serotonin (5-HT) uptake inhibitory activity [2]: serotonin (5-HT) uptake inhibitory activity

COc1ccc([C@@]23CCC(=O)C[C@@H]2N(C)CC3)cc1OC [Freeform Form A]
Form change by XRPD after DVS test (hygroscopicity by DVS): amorphous; also recorded: Amorphous* | behaviour during DVS test (hygroscopicity by DVS; during DVS test): deliquesced | solubility ([3]; simulated gastric fluid, in SGF): > 8300 µg/mL | solubility ([3]; in FaSSIF): > 8300 µg/mL | solubility ([3]; in FeSSIF): > 8300 µg/mL | solubility ([3]; water, in H2O): > 8300 µg/mL | solubility kinetic ([3]; simulated gastric fluid, SGF): > 8300 µg/mL | solubility at 1 h ([3]; simulated gastric fluid, SGF): > 8.6 mg/mL | solubility at 2 h ([3]; simulated gastric fluid, SGF): > 9.2 mg/mL | solubility at 4 h ([3]; simulated gastric fluid, SGF): > 8.4 mg/mL | solubility at 24 h ([3]; simulated gastric fluid, SGF): > 8.7 mg/mL | solubility kinetic ([3]; FaSSIF): > 8300 µg/mL | solubility at 1 h ([3]; FaSSIF): > 8.7 mg/mL | solubility at 2 h ([3]; FaSSIF): > 8.7 mg/mL | solubility at 4 h ([3]; FaSSIF): > 8.3 mg/mL | solubility at 24 h ([3]; FaSSIF): > 8.5 mg/mL | solubility kinetic ([3]; FeSSIF): > 8300 µg/mL | solubility at 1 h ([3]; FeSSIF): > 8.7 mg/mL | solubility at 2 h ([3]; FeSSIF): > 9.8 mg/mL | solubility at 4 h ([3]; FeSSIF): > 9.1 mg/mL | solubility at 24 h ([3]; FeSSIF): > 9.9 mg/mL | solubility kinetic ([3]; water, H2O): > 8300 µg/mL | solubility at 1 h ([3]; water, H2O): > 9.1 mg/mL | solubility at 2 h ([3]; water, H2O): > 9.3 mg/mL | solubility at 4 h ([3]; water, H2O): > 9.4 mg/mL | solubility at 24 h ([3]; water, H2O): > 9.3 mg/mL | solubility ([4]; 1,4-Dioxane, organic solvent or mixture): > 40000 µg/mL | solubility ([4]; 2-MeTHF, organic solvent or mixture): > 40000 µg/mL | solubility ([4]; ACN, organic solvent or mixture): > 44000 µg/mL | solubility ([4]; Acetone, organic solvent or mixture): > 40000 µg/mL | solubility ([4]; CPME, organic solvent or mixture): > 40000 µg/mL | solubility ([4]; DCM, organic solvent or mixture): > 42000 µg/mL | solubility ([4]; EtOAc, organic solvent or mixture): 19000 to 38000 µg/mL (≈ 65.7 to 131 mM) | solubility ([4]; EtOH, organic solvent or mixture): > 42000 µg/mL | solubility ([4]; H2O, water): > 42000 µg/mL | solubility ([4]; IPA, organic solvent or mixture): > 38000 µg/mL | solubility ([4]; IPAc, organic solvent or mixture): > 36000 µg/mL | solubility ([4]; MIBK, organic solvent or mixture): > 38000 µg/mL | solubility ([4]; MTBE, organic solvent or mixture): > 40000 µg/mL | solubility ([4]; MeOH, organic solvent or mixture): > 36000 µg/mL | solubility ([4]; THF, organic solvent or mixture): > 44000 µg/mL | form change by XRPD after storage ([1]; 25° C./60% RH/open/1 week): amorphous | Purity (area %) ([1]; 25° C./60% RH/open/1 week): 98.14 area % | Form change ([1]; 25° C./60% RH/open/1 week): Amorphous | HPLC purity change after storage [1]: slight purity decrease | form change by XRPD after storage ([1]; 40° C./75% RH/open/1 week): amorphous | Purity (area %) ([1]; 40° C./75% RH/open/1 week): 98.01 area % | Form change ([1]; 40° C./75% RH/open/1 week): Amorphous | Purity (area %) ([1]; Initial): 98.15 area %

COc1ccc([C@@]23CCC(=O)C[C@@H]2N(C)CC3)cc1OC.O=C(O)c1cc(O)ccc1O [Gentisate Form A]
Water uptake at 25° C./80% RH (wt %) (hygroscopicity by DVS; DVS): 0.17 wt % | water uptake at 25° C./80% RH (hygroscopicity by DVS; DVS): 0.17% | Form change by XRPD after DVS test (hygroscopicity by DVS): No form change and No | form change by XRPD after storage ([1]; 25° C./60% RH/open/1 week): no form change | Purity (area %) ([1]; 25° C./60% RH/open/1 week): 97.18 area % | Form change ([1]; 25° C./60% RH/open/1 week): No | HPLC purity change after storage [1]: slight purity decrease | form change by XRPD after storage ([1]; 40° C./75% RH/open/1 week): no form change | Purity (area %) ([1]; 40° C./75% RH/open/1 week): 97.11 area % | Form change ([1]; 40° C./75% RH/open/1 week): No | Purity (area %) ([1]; Initial): 97.22 area %

COc1ccc(C23CCC(=O)CC2N(C)CC3)cc1OC.Cl (stereo not shown) [HCl Form A]
Water uptake at 25° C./80% RH (wt %) (hygroscopicity by DVS; DVS): 0.72 wt % | water uptake at 25° C./80% RH (hygroscopicity by DVS; DVS): 0.72% | water uptake at 95% RH (hygroscopicity by DVS; DVS, 95% RH): 18.46% | Form change by XRPD after DVS test (hygroscopicity by DVS): No form change | Form change by XRPD after DVS test (hygroscopicity by DVS; listed as HCl salt Form A): No form change and No | form change by XRPD after storage ([1]; 25° C./60% RH/open/1 week): no form change | Purity (area %) ([1]; 25° C./60% RH/open/1 week): 97.06 area % | Form change ([1]; 25° C./60% RH/open/1 week): No | HPLC purity change after storage [1]: slight purity decrease | form change by XRPD after storage ([1]; 40° C./75% RH/open/1 week): no form change | Purity (area %) ([1]; 40° C./75% RH/open/1 week): 97.00 area % | Form change ([1]; 40° C./75% RH/open/1 week): No | Purity (area %) ([1]; Initial): 97.15 area %
